Reference: patent US20230115515A1, “PYRAZOLYLPROPANAMIDE COMPOUNDS AND USES THEREOF FOR TREATMENT OF PROSTATE CANCER” (priority 2020, published 2023)

Assays:
[1] = system: Enzalutamide resistant VCaP (MDVR VCaP) xenograft; details: cited from earlier work
[2] = system: AR and AR-V7-positive 22RV1 xenograft; test: 22RV1 xenograft in NSG mice; format: in vivo, mouse
[3] = system: UT-1355 TNBC PDX; test: TNBC patient-derived xenograft UT-1355 in NSG mice; format: in vivo, mouse; details: for tumor volume at end: in mm³ (unit assumed)
[4] = system: FKBP5 gene expression in LNCaP cells; test: AR-target gene (FKBP5) expression in LNCaP cells, real-time PCR; format: cell-based, human; details: R1881-induced, FIG. 3
[5] = target: recombinant LBD of wildtype AR (wtAR); details: read-out: Binding Ki; cited from earlier work
[6] = Metabolic stability in mouse liver microsomes (phase I and II)
[7] = Metabolic stability in rat liver microsomes (phase I and II); format: in vitro ADME; details: for half-life at 1 µM: read-out: RLM T1/2
[8] = system: ventral prostate (VP) and seminal vesicle (SV) weights; test: Hershberger assay in intact rats; format: in vivo, rat
Procedure: FIGS. 7A and 7B depict that SARDs and pan-antagonists inhibited androgen-dependent organs in rats. FIGS. 7 A and 7B show the reduction of VP and SV weights following the treatment of intact rats with 20 mg/kg (mpk) po daily of antagonist or vehicle for 14 days (n=5/group). Rats were sacrificed at the end of the treatment period and weights of prostate and SVs were measured and normalized to body weight.
Male rats (6-8 weeks old) were randomized into groups based on body weight. Animals were sacrificed, prostate and seminal vesicles were weighed, and organ weights were normalized to body weight. Male rats (n=5/group) were left intact, for […]. […] Organ weights were normalized to body weight. […] The goal of the experiments was to find compounds with in vivo antiandrogen efficacies greater than 10.
Hershberger Assays. […] Rat ventral prostate (VP), seminal vesicle (SV), and levator ani (LA) muscle are AR-dependent tissues whose size (reflected by their weight) responds rapidly to castration.
Traditionally, agonists are dosed to prevent (whereby agonist is given upon castration) or restore (agonist is given after tissue atrophies) anabolic tissue weights [LA or other skeletal muscles and bone (the latter takes months not days to atrophy and restore)] to intact levels or greater, without increasing androgenic tissue (SV or VP) weights back to intact levels. […]

[9] = In vivo lethality observation; details: 5 mg/kg
[10] = in vitro; details: mouse, microsomes, pH 7.5
[11] = Metabolic stability in human liver microsomes (phase I and II); format: in vitro ADME
[12] = system: Enzalutamide resistant VCaP (MDVR VCaP) xenograft; test: Enz-R (MDVR) VCaP xenograft in intact SRG rats; format: in vivo, rat; details: 10 mg/kg po daily, FIG. 8B
[13] = target: CMV-hAR (Homo sapiens, UniProt P10275); test: cell-based; details: read-out: Wt. IC50
[14] = target: T1, hAR-LBD (633-919) (Homo sapiens, UniProt P10275); test: Ligand binding assay (Ki), [3H]mibolerone competition (Table A)
T1 sequence (P10275 633-919): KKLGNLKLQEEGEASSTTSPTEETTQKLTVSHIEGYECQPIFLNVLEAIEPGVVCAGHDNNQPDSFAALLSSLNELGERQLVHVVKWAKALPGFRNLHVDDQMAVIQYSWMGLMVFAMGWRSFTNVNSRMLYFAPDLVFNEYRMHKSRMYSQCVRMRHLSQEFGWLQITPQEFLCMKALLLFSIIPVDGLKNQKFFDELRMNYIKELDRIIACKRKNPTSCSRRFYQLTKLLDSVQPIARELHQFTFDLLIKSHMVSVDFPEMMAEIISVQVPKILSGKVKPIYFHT

[15] = pH 7.5, MLM T1/2 (min), co-factors for phases I and II
[16] = rat, microsomes, pH 7.5, cofactors for phases I and II

Chain of CMV-hAR (P10275 whole entry, the tested form may be a part): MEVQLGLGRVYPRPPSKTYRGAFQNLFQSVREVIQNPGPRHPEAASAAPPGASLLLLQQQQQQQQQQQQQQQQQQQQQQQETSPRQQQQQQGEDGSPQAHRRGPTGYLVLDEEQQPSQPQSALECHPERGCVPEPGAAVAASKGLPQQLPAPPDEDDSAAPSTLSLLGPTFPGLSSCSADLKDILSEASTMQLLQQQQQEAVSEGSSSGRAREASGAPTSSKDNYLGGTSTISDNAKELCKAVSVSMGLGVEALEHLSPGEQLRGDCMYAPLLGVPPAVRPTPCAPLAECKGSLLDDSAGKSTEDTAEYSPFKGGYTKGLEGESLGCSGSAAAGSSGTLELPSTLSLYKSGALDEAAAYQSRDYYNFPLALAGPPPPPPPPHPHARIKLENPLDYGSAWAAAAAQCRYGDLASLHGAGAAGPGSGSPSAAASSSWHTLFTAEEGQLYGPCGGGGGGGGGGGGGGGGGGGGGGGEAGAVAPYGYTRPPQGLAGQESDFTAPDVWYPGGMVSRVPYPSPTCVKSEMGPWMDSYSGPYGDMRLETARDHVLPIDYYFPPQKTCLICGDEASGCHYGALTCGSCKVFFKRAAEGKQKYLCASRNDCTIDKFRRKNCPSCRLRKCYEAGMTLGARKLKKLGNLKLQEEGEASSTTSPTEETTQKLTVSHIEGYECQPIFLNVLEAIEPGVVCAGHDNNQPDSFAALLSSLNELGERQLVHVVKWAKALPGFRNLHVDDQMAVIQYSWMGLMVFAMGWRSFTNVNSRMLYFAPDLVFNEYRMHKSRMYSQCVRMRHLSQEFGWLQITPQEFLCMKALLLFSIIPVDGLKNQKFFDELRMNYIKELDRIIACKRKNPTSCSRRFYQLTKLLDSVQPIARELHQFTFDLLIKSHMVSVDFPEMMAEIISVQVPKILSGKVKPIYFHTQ

CNC(=O)c1ccc(N2C(=S)N(c3ccc(C#N)c(C(F)(F)F)c3)C(=O)C2(C)C)cc1F [4 (enzalutamide), enzalutamide, reference compound]
effect in MDVR VCaP xenograft ([1]; not shown, previously published): failed to durably achieve any effect | time to euthanasia criteria (Kaplan-Meier) ([2]; length>2 cm or volume>2000 mm^3, FIG. 12): reached euthanasia criteria earlier than the animals treated with 21c | effect on 22RV1 xenograft growth ([2]; oral, NSG mice): failed to inhibit the growth | time to euthanasia criteria (Kaplan-Meier) ([3]; enzalutamide 60 mpk, FIG. 15): reached euthanasia criteria earlier than the animals treated with 21c | inhibition of FKBP5 expression [4]: also inhibited expression of the FKBP5 but at a slightly lower potency

CC(O)c1cc(C(=O)N[C@@H](C)Cn2ccc(-c3ccc(C#N)c(Cl)c3)n2)[nH]n1 (some centres unmarked) [6 (darolutamide), darolutamide]
Ki [5]: 11 nM

C[C@](O)(Cn1cc(F)cn1)C(=O)Nc1ccc(C#N)c(C(F)(F)F)c1 [Compound 10, (S)—N-(4-Cyano-3-(trifluoromethyl)phenyl)-3-(4-fluoro-1H-pyrazol-1-yl)-2-hydroxy-2-methylpropanamide]
dose required to achieve similar results (TGI) ([1]; previously published for 10): 20 to 30 mg/kg | tumor volume at start ([3]; 60 mpk 21c, 10 60 mpk b.i.d): 427 mm³ | tumor volume at end ([3]; 60 mpk 21c, 10 60 mpk b.i.d): 1354

C[C@](O)(Cn1ccc(F)n1)C(=O)Nc1ccc(C#N)c(C(F)(F)F)c1 [Compound 16b, (S)—N-(4-Cyano-3-(trifluoromethyl)phenyl)-3-(3-fluoro-1H-pyrazol-1-yl)-2-hydroxy-2-methylpropanamide]
half-life at 1 µM [6, 15]: ≥ 0.807 h

C[C@](O)(Cn1cc(Cl)cn1)C(=O)Nc1ccc(C#N)c(C(F)(F)F)c1 [Compound 16c, (S)-3-(4-Chloro-1H-pyrazol-1-yl)-N-(4-cyano-3-(trifluoromethyl)phenyl)-2-hydroxy-2-methylpropanamide]
RLM T1/2 ([7]; cofactors for phases I and II): >2 h | half-life at 1 µM [7, 16]: > 2 h

C[C@](O)(Cn1cc(C(F)(F)F)cn1)C(=O)Nc1ccc(C#N)c(C(F)(F)F)c1 [Compound 16g, (S)—N-(4-Cyano-3-(trifluoromethyl)phenyl)-2-hydroxy-2-methyl-3-(4-(trifluoromethyl)-1H-pyrazol-1-yl)propanamide]
half-life at 1 µM [6, 15]: ≥ 0.807 h | half-life at 1 µM [7, 16]: > 2 h

C[C@](O)(Cn1ccc(C(F)(F)F)n1)C(=O)Nc1ccc(C#N)c(C(F)(F)F)c1 [Compound 16h, (S)—N-(4-Cyano-3-(trifluoromethyl)phenyl)-2-hydroxy-2-methyl-3-(3-(trifluoromethyl)-1H-pyrazol-1-yl)propanamide]
half-life at 1 µM [6, 15]: ≥ 0.807 h

C[C@](O)(Cn1cc(C#N)cn1)C(=O)Nc1ccc(C#N)c(C(F)(F)F)c1 [Compound 16i, (S)-3-(4-Cyano-1H-pyrazol-1-yl)-N-(4-cyano-3-(trifluoromethyl)phenyl)-2-hydroxy-2-methylpropanamide]
half-life at 1 µM [6, 15]: ≥ 0.807 h | toxicity in 20 mg/kg fixed dose screening Hershberger ([8]; 20 mg/kg, rats): toxic so no data | lethality in vivo [9]: lethality at 5 mg/kg

C[C@](O)(Cn1cc(F)cn1)C(=O)Nc1cnc(C#N)c(C(F)(F)F)c1 [Compound 21a]
RLM CLint ([7]; rat, microsomes, 1 µM, pH 7.5): 0 µL/min/mg | half-life at 1 µM [10]: ≥ 0.807 h | HLM CLint ([11]; 1 µM, pH 7.5): 0 µL/min/mg

C[C@](O)(Cn1cc(C#N)cn1)C(=O)Nc1cnc(C#N)c(C(F)(F)F)c1 [Compound 21c, (S)-3-(4-Cyano-1H-pyrazol-1-yl)-N-(6-cyano-5-(trifluoromethyl)pyridin-3-yl)-2-hydroxy-2-methylpropanamide]
tumor volume at end ([2]; oral, NSG mice): 1205 mm^3 | tumor volume at start ([2]; oral, NSG mice): 301 mm^3 | tumor volume inhibition (maximum) ([2]; oral, NSG mice, FIGS. 11A-11B): 63% | growth inhibition of UT-1355 PDX ([3]; 60 mpk 21c, 10 60 mpk b.i.d): significantly inhibited the growth | tumor volume at start ([3]; 60 mpk 21c, 10 60 mpk b.i.d): 227 mm³ | tumor volume at end ([3]; 60 mpk 21c, 10 60 mpk b.i.d): 331

C[C@](O)(Cn1cc(F)cn1)C(=O)Nc1ccc(C(N)=O)nc1 [Compound 21g, (S)-5-(3-(4-Fluoro-1H-pyrazol-1-yl)-2-hydroxy-2-methylpropanamido)picolinamide]
half-life at 1 µM ([6]; pH 7.5): > 6 h

C[C@](O)(Cn1cc(Br)c(F)n1)C(=O)Nc1ccc(C#N)c(C(F)(F)F)c1 [Compound 26a, (S)-3-(4-Bromo-3-fluoro-1H-pyrazol-1-yl)-N-(4-cyano-3-(trifluoromethyl)phenyl)-2-hydroxy-2-methylpropanamide]
tumor weights at the end of the study [12]: significant inhibition | half-life at 1 µM [7, 16]: > 2 h | half-life at 1 µM ([11]; pH 7.5, cofactors for phases I and II, read-out: HLM T1/2): > 2 h | SV weight reduction ([8]; 20 mg/kg po daily, intact rats, FIG. 7B): ~50%

C[C@@](O)(Cn1cc(F)cn1)C(=O)Nc1ccc(C#N)c(C(F)(F)F)c1 [Compound 29a, (R)—N-(4-Cyano-3-(trifluoromethyl)phenyl)-3-(4-fluoro-1H-pyrazol-1-yl)-2-hydroxy-2-methylpropanamide]
half-life at 1 µM ([6]; pH 7.5): ≥ 0.807 h

C[C@](O)(Cn1cc(F)cn1)C(=O)Nc1ccc(C#N)cc1Cl [Compound 29i, (S)—N-(2-Chloro-4-Cyanophenyl)-3-(4-Fluoro-1H-Pyrazol-l-Yl)-2-Hydroxy-2-Methylpropanamide]
IC50 [13]: 1230 nM

C[C@](O)(Cn1cc(C#N)cn1)C(=O)Nc1ccc(C#N)cc1Cl [Compound 29j, (S)—N-(2-chloro-4-cyanophenyl)-3-(4-cyano-1H-pyrazol-1-yl)-2-hydroxy-2-methylpropanamide]
IC50 [13]: 1120 nM

Cc1c(NC(=O)[C@@](C)(O)Cn2cc(C#N)cn2)ccc(C#N)c1Cl [Compound 29k, (S)—N-(3-Chloro-4-Cyano-2-Methylphenyl)-3-(4-Cyano-1H-Pyrazol-1-Yl)-2-Hydroxy-2-Methylpropanamide]
IC50 [13]: 1700 nM

C[C@](O)(Cn1cc(-c2ccc(C#N)cc2)nn1)C(=O)Nc1ccc(C#N)c(C(F)(F)F)c1 [Compound 29o, (S)—N-(4-Cyano-3-(Trifluoromethyl)Phenyl)-3-(4-(4-Cyanophenyl)-1H-1,2,3-Triazol-1-Yl)-2-Hydroxy-2-Methylpropanamide]
IC50 [13]: 62 nM | Ki [14]: 1510 nM
